Assay results from ChEMBL document CHEMBL5550186, “Exploring the Potential of Cyclic Peptidyl Antitumor Agents Derived from Natural Macrocyclic Peptide Phakellistatin 13” (J Med Chem, 2024).
Starred links: 1 amine or outer side, 2 acyl side, 3 side chain; linkers in the order of their positions; H or OH if unused. Non-standard residues stand in square brackets, D forms with d. Residues, ends and D or L forms follow the SMILES beside them. *: point of attachment. X1 = O=C1c2ccccc2[C@@](O)(CN(Cc2ccccc2)[*:1])N1CC(=O)[*:2]; X2 = O=C1c2ccccc2[C@](O)(CN(Cc2ccccc2)[*:1])N1CC(=O)[*:2]; Bn = c1ccc(C*)cc1

Tests used:
MDA-MB-231 = assay: Antiproliferative activity against human MDA-MB-231 cells incubated for 48 hrs by MTT assay; format: functional, cell-based; details: MDA-MB-231, 48 h
HeLa = assay: Antiproliferative activity against human HeLa cells incubated for 48 hrs by MTT assay; format: functional, cell-based
HepG2 = assay: Antiproliferative activity against human HepG2 cells incubated for 48 hrs by MTT assay; format: functional, cell-based; details: HepG2, 48 h
4T1 = assay: Antiproliferative activity against mouse 4T1 cells incubated for 48 hrs by MTT assay; format: functional, cell-based; details: 4T1, 48 h
BEL-7404 tumor cell line = assay: Antiproliferative activity against human BEL-7404 tumor cell line incubated for 48 hrs by MTT assay; format: functional, cell-based; details: BEL-7404, 48 h
[1] = Antiproliferative activity against mouse L929 cells incubated for 48 hrs by MTT assay; format: toxicity, cell-based

Row | Structure (SMILES) | IC50 (MDA-MB-231) [µM] | IC50 (HeLa) [µM] | IC50 (HepG2) [µM] | IC50 (4T1) [µM] | IC50 (BEL-7404 tumor cell line) [µM] | IC50 at 48 h [1] [µM]
1 | CC(C)C[C@@H]1NC(=O)[C@H]([C@@H](C)OCc2ccccc2)NC(=O)[C@@H]2CCCN2C(=O)[C@H](Cc2ccccc2)NC(=O)[C@@H]2CCCN2C(=O)CN2C(=O)c3ccccc3[C@]2(O)CN(Cc2ccccc2)C(=O)[C@H](Cc2c[nH]c3ccccc23)NC1=O (cyclo(FPT(Bn)LW[X2]P)) | 14 | 52.8 | 44.3 | 65.2 | 36.1 | > 100
2 | CC(C)C[C@@H]1NC(=O)[C@H]([C@@H](C)OCc2ccccc2)NC(=O)[C@@H]2CCCN2C(=O)[C@H](Cc2ccccc2)NC(=O)[C@@H]2CCCN2C(=O)[C@H](Cc2c[nH]c3ccccc23)NC(=O)CN2C(=O)c3ccccc3[C@@]2(O)CN(Cc2ccccc2)C1=O (cyclo(FPT(Bn)L[X1]WP)) | 14.4 | 35.9 | 31.1 | 67.5 | 28.7 | > 100
3 | CC(C)C[C@@H]1NC(=O)[C@H]([C@@H](C)OCc2ccccc2)NC(=O)[C@@H]2CCCN2C(=O)[C@H](Cc2ccccc2)NC(=O)CN2C(=O)c3ccccc3[C@@]2(O)CN(Cc2ccccc2)C(=O)[C@@H]2CCCN2C(=O)[C@H](Cc2c[nH]c3ccccc23)NC1=O (cyclo(FPT(Bn)LWP[X1])) | 29.3 | 33.9 | 28.9 | 42.6 | 30.2 | > 100
4 | CC(C)C[C@@H]1NC(=O)[C@H]([C@@H](C)OCc2ccccc2)NC(=O)CN2C(=O)c3ccccc3[C@]2(O)CN(Cc2ccccc2)C(=O)[C@@H]2CCCN2C(=O)[C@H](Cc2ccccc2)NC(=O)[C@@H]2CCCN2C(=O)[C@H](Cc2c[nH]c3ccccc23)NC1=O (cyclo(FP[X2]T(Bn)LWP)) | 26.1 | 50.8 | 32.6 | 65.9 | 38.9 | > 100
5 | CC(C)C[C@@H]1NC(=O)CN2C(=O)c3ccccc3[C@]2(O)CN(Cc2ccccc2)C(=O)[C@H]([C@@H](C)OCc2ccccc2)NC(=O)[C@@H]2CCCN2C(=O)[C@H](Cc2ccccc2)NC(=O)[C@@H]2CCCN2C(=O)[C@H](Cc2c[nH]c3ccccc23)NC1=O (cyclo(FPT(Bn)[X2]LWP)) | 32.6 | 55.6 | 35.5 | 58.9 | 41.7 | > 100

Stronger by IC50 (HeLa), values ahead:

Row | IC50 (MDA-MB-231) [µM] | IC50 (HeLa) [µM] | IC50 (HepG2) [µM] | IC50 (4T1) [µM] | IC50 (BEL-7404 tumor cell line) [µM] | Structure (SMILES) | IC50 at 48 h [1] [µM]
6 | 17.8 | 31 | 29 | 42.4 | 25.7 | CC(C)C[C@H]1NC(=O)[C@@H]([C@H](C)OCc2ccccc2)NC(=O)[C@H]2CCCN2C(=O)CN2C(=O)c3ccccc3[C@@]2(O)CN(Cc2ccccc2)C(=O)[C@@H](Cc2ccccc2)NC(=O)[C@H]2CCCN2C(=O)[C@@H](Cc2c[nH]c3ccccc23)NC1=O | > 100
7 | 15.4 | 28.6 | 24.1 | 54.7 | 30 | CC(C)C[C@@H]1NC(=O)[C@H]([C@@H](C)OCc2ccccc2)NC(=O)[C@@H]2CCCN2C(=O)CN2C(=O)c3ccccc3[C@@]2(O)CN(Cc2ccccc2)C(=O)[C@H](Cc2ccccc2)NC(=O)[C@@H]2CCCN2C(=O)[C@H](Cc2c[nH]c3ccccc23)NC1=O | > 100
8 | 20.5 | 28.1 | 13.1 | 26.8 | 49.9 | CC(C)C[C@@H]1NC(=O)[C@H]([C@@H](C)O)NC(=O)[C@@H]2CCCN2C(=O)CNC(=O)[C@H](Cc2ccccc2)NC(=O)[C@@H]2CCCN2C(=O)[C@H](Cc2c[nH]c3ccccc23)NC1=O [PHAKELLISTATIN 13] (cyclo(FGPTLWP)) | > 100
9 |  | 20.9 | 26.6 |  |  | COc1cccc2c1C(=O)c1c(O)c3c(c(O)c1C2=O)C[C@@](O)(C(=O)CO)C[C@@H]3O[C@H]1C[C@H](N)[C@H](O)[C@H](C)O1 [DOXORUBICIN] | > 100
